Experimental data: ChEMBL document CHEMBL1127880, “1H-1,2,4-triazole angiotensin II receptor antagonists: N-phenylpyridinylmethyl and N-pyridinylphenylmethyl analogs of SC-50560” (Bioorg Med Chem Lett, 1994)

Key:
Angiotensin II receptor = target: T1, Angiotensin II receptor (Rattus norvegicus, UniProt P29089+P25095+P35351); assay: Tested in vitro for inhibition of [125I]AII to rat uterine membranes; type: cell membranes, Membrane
T1 sequence (P29089 whole entry): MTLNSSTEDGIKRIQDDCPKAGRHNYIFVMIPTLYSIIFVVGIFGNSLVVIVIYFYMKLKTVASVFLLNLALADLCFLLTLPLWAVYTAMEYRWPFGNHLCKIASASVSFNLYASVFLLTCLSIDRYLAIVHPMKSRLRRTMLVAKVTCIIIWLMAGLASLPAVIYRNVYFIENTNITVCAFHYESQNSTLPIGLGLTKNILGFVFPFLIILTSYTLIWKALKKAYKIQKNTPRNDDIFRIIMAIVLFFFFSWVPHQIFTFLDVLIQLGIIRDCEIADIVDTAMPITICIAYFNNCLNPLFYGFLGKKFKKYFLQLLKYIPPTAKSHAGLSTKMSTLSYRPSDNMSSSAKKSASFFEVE
T1 sequence (P25095 whole entry): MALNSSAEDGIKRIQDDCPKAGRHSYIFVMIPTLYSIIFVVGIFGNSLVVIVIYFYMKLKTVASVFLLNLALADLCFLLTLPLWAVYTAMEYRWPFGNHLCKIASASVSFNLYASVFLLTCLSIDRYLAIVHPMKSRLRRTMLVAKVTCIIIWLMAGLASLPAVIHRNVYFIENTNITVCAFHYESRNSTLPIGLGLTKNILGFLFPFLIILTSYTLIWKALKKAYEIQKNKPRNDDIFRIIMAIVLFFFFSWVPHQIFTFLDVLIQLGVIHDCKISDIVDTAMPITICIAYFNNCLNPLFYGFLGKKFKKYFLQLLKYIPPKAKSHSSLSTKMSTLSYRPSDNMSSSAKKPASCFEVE
T1 sequence (P35351 whole entry): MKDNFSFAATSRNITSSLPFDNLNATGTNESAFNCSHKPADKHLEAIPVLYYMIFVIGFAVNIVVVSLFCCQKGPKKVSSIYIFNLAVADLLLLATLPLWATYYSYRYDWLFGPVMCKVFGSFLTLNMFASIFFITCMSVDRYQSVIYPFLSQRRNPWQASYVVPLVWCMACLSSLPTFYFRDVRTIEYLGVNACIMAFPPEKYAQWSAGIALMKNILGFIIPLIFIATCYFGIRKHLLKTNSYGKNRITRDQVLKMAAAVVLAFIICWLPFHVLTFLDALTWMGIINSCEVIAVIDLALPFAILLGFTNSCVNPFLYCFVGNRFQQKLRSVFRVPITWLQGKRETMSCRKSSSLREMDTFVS

Oryctolagus cuniculus = species on record: Oryctolagus cuniculus; assay: Evaluated for antagonism of AII contracted rabbit aortic rings; type: functional; details: Aorta, read-out: pA2 (converted)

| SMILES | IC50 (Angiotensin II receptor) [nM] | Kb (Oryctolagus cuniculus) [nM] |
| --- | --- | --- |
| CCCCc1nc(CCCC)n(Cc2ccc(-c3cnccc3-c3nn[nH]n3)cc2)n1 | 150 | 63.1 |
| CCCCc1nc(CCCC)n(Cc2ccc(-c3ccncc3-c3nn[nH]n3)cc2)n1 | 250 | – |
| CCCCc1nc(CCCC)n(Cc2ccc(-c3ccccc3-c3nn[nH]n3)cn2)n1 | – | 10 |

Further lines, with some results ahead:

| IC50 (Angiotensin II receptor) [nM] | SMILES | Kb (Oryctolagus cuniculus) [nM] |
| --- | --- | --- |
| 110 | CCCCc1nc(CCCC)n(Cc2ccc(-c3cccnc3-c3nn[nH]n3)cc2)n1 | 126 |
| 98 | CCCCc1nc(CCCC)n(Cc2ccc(-c3ncccc3-c3nn[nH]n3)cc2)n1 | 158 |
